Measured values as given in patent US20140295012A1, “LATENT HUMAN IMMUNODEFICIENCY VIRUS REACTIVATION” (priority 2011, published 2014).
*1 amine or outer side, *2 acyl side, *3 side chain or, on linkers, in order; H or OH if unused. Where a SMILES comes first, the peptide text is derived from it. Bridges are numbered along the chain shown (N, C = ends). Roman numbers before positions name the chains, in order. [ ]: non-standard residue; d: D form. Actinocin(9to1) = Cc1c2oc3c(C)ccc(C(=O)[*:1])c3nc-2c(C(=O)[*:2])c(N)c1=O; NMeV = CN[C@H](C(=O)O)C(C)C; Sar = CNCC(=O)O

B1: HRF: flagellin polypeptide from Massilia timonae (SEQ ID NO:10), used as bacterial culture supernatant (protein)
chain: MASVINTNVPSLNSQRNLSTSQAQLNTSIQRLSSGMRINSAKDDAAGLAISDRMNSQIKGMTQATRNANDGVSMAQTAEGALSSSGDILQRIRELAVQSSNSSNSASDRKALQTEVTQLSSELNRIANTTEFNGQKLMDGTLGTANFQVGANAGQLISMTGANFNTSVYGNNQIAGDAAKAAATTSAAATGAFTISGYLGTSAAINTTDADTAKTIAASINNVTGDTGVTATARTDSFLKSAGGAHTMSLASDNSGTGEAVDISFTVGDGGDTADDYAAAISAFNAQTAKTGVTAEYDAVEKGLKLTNSAGENISLTNKAGSADIDMDTYAADGALMASALTLEAGDVGVANGRVTMDSEKSFSVAEGTDTGFELADSSALKSVAKIDISDFEGAQEAIKVADAALSAVNSQRAEYGALQSRFESAISNLSSSTENLSASRSRIVDTDFAAETAKMTRGQILQQAGTSMLAQANSLPNGVLSLLRG

Experiments:
Format in all cases: cell-based
[1] = test system: latently HIV-1 infected J89GFP T cells; assay: HIV-1 reactivation / priming in latently HIV-1 infected J89GFP T cells (GFP, flow cytometry, HTS)
Protocol: Flow cytometry. Infection levels in the cell cultures were monitored by flow cytometric (FCM) analysis of GFP expression. […] Cell sorting experiments were performed using a FACSAria™ Flow Cytometer (Becton&Dickinson). Data analysis was performed using either CellQuest (Becton&Dickinson) or GUAVA Express (GUAVA Technologies, Inc.).

[2] = test system: latently HIV-1 infected EF7 cells; assay: Priming of latent HIV-1 infection in EF7 T cells (converse sense integration); conditions: 4 ng/ml, 18 hours pretreatment
Protocol: FIGS. 13A-B show the effect of dactinomycin on latent infection as a function of the orientation of integration relative to the direction of host-gene transcription. HIV-1 can integrate in the same transcriptional orientation as the host-gene or in the converse sense. Two latently HIV-1 infected T cell lines, which were determined to have HIV-1 integrated in the same sense orientation (CA5 cells) (FIG. 13A) and in the converse sense orientation (EF7 cells) (FIG. 13B) were used. For either cell line, the host-gene name, the position of integration and the chromosome number is given. For either T cell line, reactivation levels achieved by TNF-α treatment alone or by TNF-α stimulation following pretreatment with 4 ng/ml dactinomycin for 18 hours are shown. Reactivation levels were determined using flow cytometric analysis for GFP expression. The gray dotted line represents maximum achievable reactivation levels using PMA.
The sense of orientation of the integrated latent virus, relative to the transcriptional direction of the host-gene, was investigated to determine whether the orientation would influence the ability of dactinomycin to prime latent infection for reactivation. […]

[3] = test system: latently HIV-1 infected primary T cells; assay: Reactivation of latent HIV-1 infection in primary T cells (GFP); conditions: 24 hours
Protocol: Latently HIV-1 infected primary T cells were treated for 24 hours with aclacinomycin (ACM) or dactinomycin (ActD), or with the anti-CD3 monoclonal antibody (mAb) OKT3. Reactivation levels were determined as a percentage of GFP-positive cells 24 hours after stimulation. Viability of the cells correlates with the size of the symbol.
To determine if aclacinomycin or dactinomycin were capable of reactivating a latent HIV-1 infection in primary T cells, latently HIV-1 infected primary T cells were treated with aclacinomycin or dactinomycin or with the anti-CD3 monoclonal antibody OKT3 for 24 hours. Reactivation of the latent HIV-1 infection was observed by increasing levels of GFP fluorescence.

[4] = test system: latently HIV-1 infected monocytic THP89GFP cells; assay: HIV-1 reactivation in latently infected monocytic THP89GFP cells
HIV-1 LTR = assay: Tat-independent activation of integrated LTR-GFP construct in NOMI reporter T cells; conditions: 24 hours
Protocol: FIGS. 6A-6C show HRF triggers suboptimal functional induction of NF-κB dependent gene expression. […] The HIV-1 reactivating kinetics were determined by stimulating CA5 T cells with optimal concentrations of HRF, phorbol 12-myristate 13-acetate (PMA) and tumor necrosis factor-α (TNF-α) and analyzing HIV-1 reactivation as a function of EGFP-expression over a period of 48 hours. Data for all agents are depicted as the percentage of EGFP-positive cells in the total cell population. […] To test the ability of HRF to mediate Tat-independent activation of the HIV-1 LTR, NOMI cells (HIV-1 reporter cell line with an integrated LTR-EGFP construct) were stimulated with increasing concentrations of PMA (0.01-10 ng/ml), TNF-α (0.003-30 μg/ml) and HRF supernatant (0.3-100 μl). The level of LTR-induction was then measured as EGFP-expression detectable after 24 hours as determined by flow cytometric analysis. Arrows indicate the concentrations at which the respective stimulus would have triggered full HIV-1 reactivation in the latently HIV-1 infected CA5 T cell line. […] 293T cells were transfected with several NF-κB dependent promoter constructs and then stimulated with either TNF-α (10 μg/ml) or HRF (25 μl). Promoter induction was measured as total EGFP expression. (NF-κB:pNF-κB-d2EGFP; LTR:HIV-1 LTR-GFP; IL-8:pIL-8 GFP; TNF:human TNF-GFP; MSCV:murine stem cell virus LTR driven GFP; no NF-κB responsive elements).
As the NF-κB pathway has been recognized as vital to HIV-1 activation, the ability of HRF to trigger NF-κB activation was investigated. It was initially determined that HRF had the ability to stimulate Tat independent activation of an integrated LTR-GFP construct in NOMI reporter T cells.

Row | Molecule | priming of latent HIV-1 infection for reactivation ([1]; in combination with sub-optimal TNF-α) | HIV-1 reactivating capacity by itself ([1]; relative to latently infected control cells) | priming effect for reactivation by TNF-α [2] | reactivation of latent HIV-1 infection [3] | HIV-1 reactivation [4] | Tat-independent activation of integrated LTR-GFP construct (GFP expression) (HIV-1 LTR)
1 | Cc1c2oc3c(C)ccc(C(=O)N[C@@H]4C(=O)N[C@H](C(C)C)C(=O)N5CCC[C@H]5C(=O)N(C)CC(=O)N(C)[C@@H](C(C)C)C(=O)O[C@@H]4C)c3nc-2c(C(=O)N[C@@H]2C(=O)N[C@H](C(C)C)C(=O)N3CCC[C@H]3C(=O)N(C)CC(=O)N(C)[C@@H](C(C)C)C(=O)O[C@@H]2C)c(N)c1=O [dactinomycin] (I: T[dV]P[Sar][NMeV] / II: T[dV]P[Sar][NMeV]; ester I:1-I:C, II:1-II:C; linker I:N-II:N via Actinocin(9to1)) | potently primed latent HIV-1 infection for reactivation | did not exhibit HIV-1 reactivating capacity by itself | exerted its priming effect in each integration scenario | capable of reactivating latent HIV-1 infections | – | –
2 | B1 | – | – | – | – | reactivated latent HIV-1 infection | modest increase in GFP expression
